Results published in patent US10696707B2, “Polyene macrolide derivative” (Shionogi & Co., Ltd., priority 2014, dated 2020).
Values after ≈ are worked out from the molar mass of the structure shown. Like-named read-outs stand apart in the source and are kept apart here.

Legend:
Assay type in all cases: cell-based
[1] = tested on: C. albicans ATCC90028; test: Antifungal activity test, MIC by broth microdilution (CLSI M27-A3)
Method: (§1) The Minimum Inhibitory Concentration (MIC) values of the present compound against yeast and filamentous fungi were determined by broth microdilution assay according to the Clinical Laboratory Standards Institute (CLSI) guidelines outlined in documents M27-A3 and M38-A2. The medium used in the assay consisted of RPMI1640 (with glutamine, without bicarbonate) with 2% glucose and 0.165 mol/L morpholinepropanesulfonic acid (MOPS) with pH adjusted to 7.0 using 1 mol/L sodium hydroxide. The present compound was dissolved in dimethyl sulfoxide (DMSO). A series of two-fold dilutions were prepared in DMSO, and then 2 μL of the diluted compound was added to each well in 96-well sterile plates. Each inoculum was prepared by diluting a suspension of Candida spp. or a conidia suspension of Aspergillus spp. suspended in sterile saline solution, and then 200 μL was added to each well to a predetermined concentration using RPMI/MOPS (final concentration for each solution: approximately 1×10^3 cells/mL and approximately 1×10^4 CFU/mL). Plates of Candida spp. and Aspergillus spp. were incubated at 35° C. for 24-48 hours. The MIC was defined as the lowest concentration giving 100% inhibition compared to the growth control.

[2] = tested on: A. flavus ATCC204304; test: Antifungal activity test, MIC by broth microdilution (CLSI M38-A2)
Method: as §1

[3] = tested on: A. fumigatus ATCC204305; test: as above
Method: as §1

[4] = C. albicans ATCC90028, broth microdilution, 35° C., 24-48 hours, 100% inhibition
[5] = A. flavus ATCC204304, broth microdilution, 35° C., 24-48 hours, 100% inhibition
[6] = A. fumigatus ATCC204305, broth microdilution, 35° C., 24-48 hours, 100% inhibition
[7] = Candida albicans, C. albicans ATCC90028, broth microdilution, 35° C., 24-48 hours, 100% inhibition, read-out: MIC
[8] = Aspergillus flavus, A. flavus ATCC204304, broth microdilution, 35° C., 24-48 hours, 100% inhibition, read-out: MIC
[9] = Aspergillus fumigatus, A. fumigatus ATCC204305, broth microdilution, 35° C., 24-48 hours, 100% inhibition, read-out: MIC

SMILES	MIC [1, 4]	MIC [2, 5]	MIC [3, 6]	also measured
C[C@@H]1[C@H](O)[C@@H](C)/C=C/C=C/C=C/C=C/C=C/C=C/C=C/[C@H](O[C@@H]2O[C@H](C)[C@@H](O)[C@H](N)[C@@H]2O)C[C@@H]2O[C@](O)(C[C@@H](O)C[C@@H](O)[C@H](O)CC[C@@H](O)C[C@@H](O)CC(=O)O[C@H]1C)C[C@H](O)[C@H]2NC(=O)NCC1(CO)COC1 [I-193]	0.25 µg/mL (≈ 0.241 µM)	0.5 µg/mL (≈ 0.482 µM)	1 µg/mL (≈ 0.963 µM)	–
C[C@@H]1[C@H](O)[C@@H](C)/C=C/C=C/C=C/C=C/C=C/C=C/C=C/[C@H](O[C@@H]2O[C@H](C)[C@@H](O)[C@H](N)[C@@H]2O)C[C@@H]2O[C@](O)(C[C@@H](O)C[C@@H](O)[C@H](O)CC[C@@H](O)C[C@@H](O)CC(=O)O[C@H]1C)C[C@H](O)[C@H]2NC(=O)NCC1CN(CCO)C1 [I-158]	0.25 µg/mL (≈ 0.238 µM)	1 µg/mL (≈ 0.951 µM)	1 µg/mL (≈ 0.951 µM)	–
C[C@@H]1[C@H](O)[C@@H](C)/C=C/C=C/C=C/C=C/C=C/C=C/C=C/[C@H](O[C@@H]2O[C@H](C)[C@@H](O)[C@H](N)[C@@H]2O)C[C@@H]2O[C@](O)(C[C@@H](O)C[C@@H](O)[C@H](O)CC[C@@H](O)C[C@@H](O)CC(=O)O[C@H]1C)C[C@H](O)[C@H]2NC(=O)NOCC(=O)O [I-278]	–	–	–	MIC [1, 7]: 0.5 µg/mL (≈ 0.494 µM); MIC [2, 8]: 0.5 µg/mL (≈ 0.494 µM); MIC [3, 9]: 0.5 µg/mL (≈ 0.494 µM)
CNC(=O)N[C@H]1[C@@H]2C[C@@H](O[C@@H]3O[C@H](C)[C@@H](O)[C@H](N(CCCN)CCCN)[C@@H]3O)/C=C/C=C/C=C/C=C/C=C/C=C/C=C/[C@H](C)[C@@H](O)[C@@H](C)[C@H](C)OC(=O)C[C@H](O)C[C@H](O)CC[C@@H](O)[C@H](O)C[C@H](O)C[C@](O)(C[C@@H]1O)O2 [I-383]	–	–	–	MIC ([1]; C. albicans ATCC90028, lowest concentration giving 100% inhibition, 35° C., 24-48 hours): 0.25 µg/mL (≈ 0.234 µM); MIC ([2]; A. flavus ATCC204304, lowest concentration giving 100% inhibition, 35° C., 24-48 hours): 1 µg/mL (≈ 0.938 µM); MIC ([3]; A. fumigatus ATCC204305, lowest concentration giving 100% inhibition, 35° C., 24-48 hours): 1 µg/mL (≈ 0.938 µM)
C[C@@H]1[C@H](O)[C@@H](C)/C=C/C=C/C=C/C=C/C=C/C=C/C=C/[C@H](O[C@@H]2O[C@H](C)[C@@H](O)[C@H](N)[C@@H]2O)C[C@@H]2O[C@](O)(C[C@@H](O)C[C@@H](O)[C@H](O)CC[C@@H](O)C[C@@H](O)CC(=O)O[C@H]1C)C[C@H](O)[C@H]2NC(=O)N(O)CC(N)=O [I-273]	–	–	–	MIC ([1]; Candida albicans, ATCC90028): 0.25 µg/mL (≈ 0.247 µM); MIC ([2]; Aspergillus flavus, ATCC204304): 0.5 µg/mL (≈ 0.494 µM); MIC ([3]; Aspergillus fumigatus, ATCC204305): 0.5 µg/mL (≈ 0.494 µM)
C[C@@H]1[C@H](O)[C@@H](C)/C=C/C=C/C=C/C=C/C=C/C=C/C=C/[C@H](O[C@@H]2O[C@H](C)[C@@H](O)[C@H](N)[C@@H]2O)C[C@@H]2O[C@](O)(C[C@@H](O)C[C@@H](O)[C@H](O)CC[C@@H](O)C[C@@H](O)CC(=O)O[C@H]1C)C[C@H](O)[C@H]2NC(=O)NCC(=O)NC(CO)CO [I-155]	0.5 µg/mL (≈ 0.468 µM)	0.5 µg/mL (≈ 0.468 µM)	1 µg/mL (≈ 0.935 µM)	–
C[C@@H]1[C@H](O)[C@@H](C)/C=C/C=C/C=C/C=C/C=C/C=C/C=C/[C@H](O[C@@H]2O[C@H](C)[C@@H](O)[C@H](N)[C@@H]2O)C[C@@H]2O[C@](O)(C[C@@H](O)C[C@@H](O)[C@H](O)CC[C@@H](O)C[C@@H](O)CC(=O)O[C@H]1C)C[C@H](O)[C@H]2NC(=O)N1C[C@@](O)(C(=O)O)[C@@](O)(C(=O)O)C1 [I-298]	–	–	–	MIC [1, 7]: 0.5 µg/mL (≈ 0.45 µM); MIC [2, 8]: 1 µg/mL (≈ 0.899 µM); MIC [3, 9]: 0.5 µg/mL (≈ 0.45 µM)
CC1C=CC=CC=CC=CC=CC=CC=CC(OC2OC(C)C(O)C(N)C2O)CC2OC(O)(CC(O)CC(O)C(O)CCC(O)CC(O)CC(=O)OC(C)C(C)C1O)CC(O)C2NC(=O)NCC(N)CCO (stereo not drawn) [I-163]	0.25 µg/mL (≈ 0.244 µM)	1 µg/mL (≈ 0.975 µM)	1 µg/mL (≈ 0.975 µM)	–

The next lines start with results.

MIC [1, 4]	MIC [2, 5]	MIC [3, 6]	SMILES	also measured
0.5 µg/mL (≈ 0.483 µM)	0.5 µg/mL (≈ 0.483 µM)	1 µg/mL (≈ 0.967 µM)	C[C@@H]1[C@H](O)[C@@H](C)/C=C/C=C/C=C/C=C/C=C/C=C/C=C/[C@H](O[C@@H]2O[C@H](C)[C@@H](O)[C@H](N)[C@@H]2O)C[C@@H]2O[C@](O)(C[C@@H](O)C[C@@H](O)[C@H](O)CC[C@@H](O)C[C@@H](O)CC(=O)O[C@H]1C)C[C@H](O)[C@H]2NC(=O)NCC(=O)NCC#N [I-157]	–
0.5 µg/mL (≈ 0.475 µM)	0.5 µg/mL (≈ 0.475 µM)	1 µg/mL (≈ 0.95 µM)	C[C@@H]1[C@H](O)[C@@H](C)/C=C/C=C/C=C/C=C/C=C/C=C/C=C/[C@H](O[C@@H]2O[C@H](C)[C@@H](O)[C@H](N)[C@@H]2O)C[C@@H]2O[C@](O)(C[C@@H](O)C[C@@H](O)[C@H](O)CC[C@@H](O)C[C@@H](O)CC(=O)O[C@H]1C)C[C@H](O)[C@H]2NC(=O)N1C[C@H](O)CC1C(=O)O (stereo partly drawn) [I-230]	–
